pIC50: −log10 of the molar value.

The target in this assay is T1, recombinant full-length human prolyl endopeptidase (PREP) (Homo sapiens, UniProt P48147).
T1 construct: To recombinant full-length human prolyl endopeptidase (PREP, R&D-Systems, 4308-SE); purchased R&D-Systems 4308-SE
T1 sequence (P48147 1-710): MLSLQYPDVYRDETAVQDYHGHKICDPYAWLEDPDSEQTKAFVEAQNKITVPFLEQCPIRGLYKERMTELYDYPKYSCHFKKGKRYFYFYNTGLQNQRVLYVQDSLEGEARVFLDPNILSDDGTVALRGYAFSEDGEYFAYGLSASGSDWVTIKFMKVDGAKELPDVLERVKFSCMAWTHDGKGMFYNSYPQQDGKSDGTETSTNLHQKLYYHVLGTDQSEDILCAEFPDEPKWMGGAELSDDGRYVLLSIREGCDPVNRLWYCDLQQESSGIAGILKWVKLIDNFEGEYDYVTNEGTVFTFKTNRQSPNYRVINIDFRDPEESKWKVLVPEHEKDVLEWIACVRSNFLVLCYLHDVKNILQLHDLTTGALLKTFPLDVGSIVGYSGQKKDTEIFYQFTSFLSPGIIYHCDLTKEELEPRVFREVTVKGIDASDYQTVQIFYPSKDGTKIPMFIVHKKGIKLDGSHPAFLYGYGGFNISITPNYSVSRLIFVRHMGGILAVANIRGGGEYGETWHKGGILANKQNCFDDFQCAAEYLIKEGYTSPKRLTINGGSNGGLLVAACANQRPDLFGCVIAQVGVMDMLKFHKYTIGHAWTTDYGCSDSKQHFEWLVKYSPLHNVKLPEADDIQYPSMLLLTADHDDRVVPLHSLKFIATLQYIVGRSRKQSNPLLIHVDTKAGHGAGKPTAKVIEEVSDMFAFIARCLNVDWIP
Put plainly: Biochemical human prolyl endopeptidase (PREP) assay with fluorescently labelled substrate. The conditions noted are these: substrate Z-Gly-Pro-AMC 50 μM, 32° C., 60 min; some as mean values from multiple independent determinations. A digest of the protocol: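 Initial rates of fluorescence increase from 50 μM Z-Gly-Pro-AMC cleavage (ex 360/em 465 nm, 60 min, 32° C) give percent PREP activity versus no-compound control, and IC50 is interpolated. Enzyme used at 0.4 nM (final, example) in Tris pH 7.5 with EDTA, GSH, BSA and Brij-35; compounds span 1 nM to 30 μM.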
Consider `CC1CCC(C(=O)N2CC[C@H](F)C2)n2c1nn(Cc1ccc(F)cc1F)c2=O` (mixture of isomers) [Example 326, (5RS,8RS)-2-(2,4-Difluorobenzyl)-5-{[(3S)-3-fluoropyrrolidin-1-yl]carbonyl}-8-methyl-5,6,7,8-tetrahydro[1,2,4]triazolo[4,3-a]pyridin-3(2H)-one], for which the pIC50 is 8.82. As to `CC1CCC(C(=O)N2CCC(F)(F)C2)n2c1nn(Cc1ccc(F)cc1F)c2=O` (racemic) [Example 327, (5RS,8RS)-2-(2,4-Difluorobenzyl)-5-[(3,3-difluoropyrrolidin-1-yl)carbonyl]-8-methyl-5,6,7,8-tetrahydro[1,2,4]triazolo[4,3-a]pyridin-3(2H)-one], the negative logarithm of the IC50 (pIC50) is 8.72.

As for `CC1CCC(C(=O)N2CC(F)C2)n2c1nn(Cc1ccc(C(F)(F)F)nc1)c2=O` (racemic) [Example 328, (5RS,8RS)-5-[(3-Fluoroazetidin-1-yl)carbonyl]-8-methyl-2-{[6-(trifluoromethyl)pyridin-3-yl]methyl}-5,6,7,8-tetrahydro[1,2,4]triazolo[4,3-a]pyridin-3(2H)-one], the pIC50 was 8.39. Next, `CC1CCC(C(=O)N2CC(F)C2)n2c1nn(Cc1ccc(F)cc1F)c2=O` (racemic) [Example 329, (5RS,8RS)-2-(2,4-Difluorobenzyl)-5-[(3-fluoroazetidin-1-yl)carbonyl]-8-methyl-5,6,7,8-tetrahydro[1,2,4]triazolo[4,3-a]pyridin-3(2H)-one]: 8.37. For `CC1CCC(C(=O)N2CCC(F)(F)C2)n2c1nn(Cc1ccc(C(F)(F)F)nc1)c2=O` (racemic) [Example 330, (5RS,8RS)-5-[(3,3-Difluoropyrrolidin-1-yl)carbonyl]-8-methyl-2-{[6-(trifluoromethyl)pyridin-3-yl]methyl}-5,6,7,8-tetrahydro[1,2,4]triazolo[4,3-a]pyridin-3(2H)-one], the pIC50 was 8.31. Regarding `CC1Cc2nn(Cc3ccc(F)c(Cl)c3)c(=O)n2C(C(=O)N2CCC(F)(F)C2)C1` (racemic) [Example 331, (5RS,7RS)-2-(3-Chloro-4-fluorobenzyl)-5-[(3,3-difluoropyrrolidin-1-yl)carbonyl]-7-methyl-5,6,7,8-tetrahydro[1,2,4]triazolo[4,3-a]pyridin-3(2H)-one], the pIC50 was 9.17. The same measure for `CC1Cc2nn(Cc3ccc(C(F)(F)F)nc3)c(=O)n2C(C(=O)N2CCC(F)(F)C2)C1` (racemic) [Example 332, (5RS,7RS)-5-[(3,3-Difluoropyrrolidin-1-yl)carbonyl]-7-methyl-2-{[6-(trifluoromethyl)pyridin-3-yl]methyl}-5,6,7,8-tetrahydro[1,2,4]triazolo[4,3-a]pyridin-3(2H)-one]: 8.41; for `CC1Cc2nn(Cc3ccnc(C(F)(F)F)c3F)c(=O)n2C(C(=O)N2C[C@@H](F)[C@@H](F)C2)C1` (mixture of isomers) [Example 333, (5RS,7RS)-5-{[(3R,4S)-3,4-Difluoropyrrolidin-1-yl]carbonyl}-2-{[3-fluoro-2-(trifluoromethyl)pyridin-4-yl]methyl}-7-methyl-5,6,7,8-tetrahydro[1,2,4]triazolo[4,3-a]pyridin-3(2H)-one]: 8.68; for `CC1Cc2nn(Cc3ccnc(C(F)(F)F)c3F)c(=O)n2C(C(=O)N2CCC(F)(F)C2)C1` (racemic) [Example 334, (5RS,7RS)-5-[(3,3-Difluoropyrrolidin-1-yl)carbonyl]-2-{[3-fluoro-2-(trifluoromethyl)pyridin-4-yl]methyl}-7-methyl-5,6,7,8-tetrahydro[1,2,4]triazolo[4,3-a]pyridin-3(2H)-one]: 8.53.

For `CC1Cc2nn(Cc3ccnc(C(F)(F)F)c3F)c(=O)n2C(C(=O)N2CC(F)C2)C1` (racemic) [Example 335, (5RS,7RS)-5-[(3-Fluoroazetidin-1-yl)carbonyl]-2-{[3-fluoro-2-(trifluoromethyl)pyridin-4-yl]methyl}-7-methyl-5,6,7,8-tetrahydro[1,2,4]triazolo[4,3-a]pyridin-3(2H)-one], the pIC50 is 8.98. Next, `CC1Cc2nn(Cc3ccc(C(F)(F)F)nc3)c(=O)n2C(C(=O)N2C[C@@H](F)[C@@H](F)C2)C1` (mixture of isomers) [Example 336, (5RS,7RS)-5-{[(3R,4S)-3,4-Difluoropyrrolidin-1-yl]carbonyl}-7-methyl-2-{[6-(trifluoromethyl)pyridin-3-yl]methyl}-5,6,7,8-tetrahydro[1,2,4]triazolo[4,3-a]pyridin-3(2H)-one]: 9.18. With `CC1Cc2nn(Cc3ccc(F)c(Cl)c3)c(=O)n2C(C(=O)N2C[C@@H](F)[C@@H](F)C2)C1` (mixture of isomers) [Example 339, (5RS,7RS)-2-(3-Chloro-4-fluorobenzyl)-5-{[(3R,4S)-3,4-difluoropyrrolidin-1-yl]carbonyl}-7-methyl-5,6,7,8-tetrahydro[1,2,4]triazolo[4,3-a]pyridin-3(2H)-one], the pIC50 is 9.31. The same measure for `CC1Cc2nn(Cc3ccc(F)c(Cl)c3)c(=O)n2C(C(=O)N2CC(F)C2)C1` (racemic) [Example 340, (5RS,7RS)-2-(3-Chloro-4-fluorobenzyl)-5-[(3-fluoroazetidin-1-yl)carbonyl]-7-methyl-5,6,7,8-tetrahydro[1,2,4]triazolo[4,3-a]pyridin-3(2H)-one]: 9.32; for `CC1Cc2nn(Cc3ccc(C(F)(F)F)nc3)c(=O)n2C(C(=O)N2CC(F)C2)C1` (racemic) [Example 341, (5RS,7RS)-5-[(3-Fluoroazetidin-1-yl)carbonyl]-7-methyl-2-{[6-(trifluoromethyl)pyridin-3-yl]methyl}-5,6,7,8-tetrahydro[1,2,4]triazolo[4,3-a]pyridin-3(2H)-one]: 8.43. Next, `O=C(C1CCCc2nn(Cc3ncc(C(F)(F)F)cc3Cl)c(=O)n21)N1CC(O)C1` (racemic) [Example 403, (5RS)-2-{[3-Chloro-5-(trifluoromethyl)pyridin-2-yl]methyl}-5-[(3-hydroxyazetidin-1-yl)carbonyl]-5,6,7,8-tetrahydro[1,2,4]triazolo[4,3-a]pyridin-3(2H)-one]: 6.72; `Cc1cc(Cn2nc3n(c2=O)C(C(=O)N2CC(F)C2)CCC3)on1` (racemic) [Example 417, (5RS)-5-[(3-Fluoroazetidin-1-yl)carbonyl]-2-[(3-methyl-1,2-oxazol-5-yl)methyl]-5,6,7,8-tetrahydro[1,2,4]triazolo[4,3-a]pyridin-3(2H)-one]: 7.74.

Consider `Cc1ccc(C(C)n2nc3n(c2=O)[C@H](C(=O)N2CCCC2)CCC3)cc1` (mixture of isomers) [Example 502, (5S)-2-[(1 RS)-1-(4-Methylphenyl)ethyl]-5-(pyrrolidin-1-ylcarbonyl)-5,6,7,8-tetrahydro[1,2,4]triazolo[4,3-a]pyridin-3(2H)-one], for which the pIC50 was 8.39. The same measure for `O=C([C@@H]1CCCc2nn(Cc3cncc(Cl)c3)c(=O)n21)N1CC(F)C(F)C1` (mixture of isomers) [Example 548, (5S)-2-[(5-Chloropyridin-3-yl)methyl]-5-{[trans-3,4-difluoropyrrolidin-1-yl]carbonyl}-5,6,7,8-tetrahydro[1,2,4]triazolo[4,3-a]pyridin-3(2H)-one]: 7.51. Next, `O=C([C@@H]1CCCc2nn(Cc3ccc(Cl)nc3)c(=O)n21)N1CC(F)C(F)C1` (mixture of isomers) [Example 550, (5S)-2-[(6-Chloropyridin-3-yl)methyl]-5-{[trans-3,4-difluoropyrrolidin-1-yl]carbonyl}-5,6,7,8-tetrahydro[1,2,4]triazolo[4,3-a]pyridin-3(2H)-one]: 7.74; `O=C(C1CCCc2nn(Cc3ccc(Cl)nc3)c(=O)n21)N1CC[C@H](F)C1` (mixture of isomers) [Example 561, (5RS)-2-[(6-Chlorpyridin-3-yl)methyl]-5-{[(3S)-3-fluorpyrrolidin-1-yl]carbonyl}-5,6,7,8-tetrahydro[1,2,4]triazolo[4,3-a]pyridin-3(2H)-on]: 9.43. The same measure for `O=C(C1CC(C(F)(F)F)Cc2nn(Cc3ncc(C(F)(F)F)cc3Cl)c(=O)n21)N1CC[C@H](F)C1` (mixture of isomers) [Example 562, (5RS,7RS)-2-{[3-Chloro-5-(trifluoromethyl)pyridin-2-yl]methyl}-5-{[(3S)-3-fluoropyrrolidin-1-yl]carbonyl}-7-(trifluoromethyl)-5,6,7,8-tetrahydro[1,2,4]triazolo[4,3-a]pyridin-3(2H)-one]: 8.88; for `O=C(C1CC(C(F)(F)F)Cc2nn(Cc3ncc(C(F)(F)F)cc3Cl)c(=O)n21)N1CCC(F)(F)C1` (racemic) [Example 564, (5RS,7RS)-2-{[3-Chloro-5-(trifluoromethyl)pyridin-2-yl]methyl}-5-[(3,3-difluoropyrolidin-1-yl)carbonyl]-7-(trifluoromethyl)-5,6,7,8-tetrahydro[1,2,4]triazolo[4,3-a]pyridin-3(2H)-one]: 8.36.

By pIC50 is commonly meant the IC50 on a negative log10 scale, so that one unit is a factor of ten.

For the origin of these results see patent publication US10722501B2 (BAYER AKTIENGESELLSCHAFT, priority 2016, dated 2020).
